Laboratory results: US10858339B2, “Aryl cyclopropyl-amino-isoquinolinyl amide compounds” (priority 2017, dated 2020)
Structures can show the parent of a compound that is named as a salt.

Experiments:
ROCK2 = ROCK2 (Homo sapiens, UniProt O75116); experiment: biochemical
ROCK1 = ROCK1 (Homo sapiens, UniProt Q13464); experiment: ROCK kinase inhibition assay, ROCK1 enzyme; assay type: biochemical;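 note: kinase reaction with 0.5 µM final ATP, 75 min at room temperature, remaining ATP read by luminescence, percent of DMSO-only control minus background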
Rho Kinase = experiment: ROCK kinase inhibition assay (Rho Kinase Activity, isoform not given); assay type: biochemical; conditions: Table 15, mostly given as ranges
Procedure: All compounds were initially prepared as 10 mM stocks in anhydrous dimethylsulfoxide (DMSO). A 20 μl aliquot of the 10 mM solutions was transferred to individual wells in column 1 of a 96-well polypropylene microtiter plate (Corning #3363) and diluted with DMSO to give a final compound concentration of 4 mM. Test compounds were then serially diluted 1:5 in DMSO for an 11-point concentration response and further diluted in the assay buffer bringing all compound concentrations to a final range of 100 μM to […] in 2.5% DMSO. The assay was performed in white 96-well, flat-bottom, half-area, non-binding assay plate (Corning #3642) in assay buffer consisting of 20 mM HEPES (pH 7.5), 10 mM MgCl2*6H2O, 100 μM sodium orthovanadate, 0.05% CHAPS and 0.1% bovine serum albumin. A 10 μL aliquot of compound from each well of the intermediate dilution plate and 20 μL of a 2× substrate/enzyme solution containing acceptor substrate (800 nM RSK2 peptide […] (SEQ ID NO: 1)), ROCK2 enzyme (10 nM), or ROCK1 enzyme, and 1,4-Dithiothreitol (DTT, 2 uM) were added to all wells. The reaction was initiated by the addition of 10 μL of 4× stock solution ATP (2 μM). Reactions were thoroughly mixed manually, covered and allowed to incubate at room temperature for 75 min. Protein kinase activity was quantitated using Promega's KINASE-GLO™ luminescent Kinase Assay Kit according to the manufacturer's directions. ATP concentrations remaining in Test wells following the termination of the enzymatic reaction were compared against control wells containing equivalent amounts of DMSO containing no inhibitor (CTRL). […] Percent of Control (POC) values were determined for each concentration of compound tested according to the equation: POC=((Test well value−BKG)/(CTRL−BKG))*100
IC50 values were converted to K; […]

JAK2 = JAK2 (Homo sapiens, UniProt O60674); experiment: JAK kinase assay, JAK2 enzyme; assay type: biochemical; conditions: for Ki: Table 15, in brackets in the activity cell, read-out: JAK2 activity;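 for all read-outs here: JAK2 kinase reaction run 75 min at room temperature, leftover ATP read by Kinase-Glo luminescence, 11-point dilution series in 2.5% DMSO, percent of inhibitor-free DMSO control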
Chain of JAK2 (O60674 whole entry, species assumed): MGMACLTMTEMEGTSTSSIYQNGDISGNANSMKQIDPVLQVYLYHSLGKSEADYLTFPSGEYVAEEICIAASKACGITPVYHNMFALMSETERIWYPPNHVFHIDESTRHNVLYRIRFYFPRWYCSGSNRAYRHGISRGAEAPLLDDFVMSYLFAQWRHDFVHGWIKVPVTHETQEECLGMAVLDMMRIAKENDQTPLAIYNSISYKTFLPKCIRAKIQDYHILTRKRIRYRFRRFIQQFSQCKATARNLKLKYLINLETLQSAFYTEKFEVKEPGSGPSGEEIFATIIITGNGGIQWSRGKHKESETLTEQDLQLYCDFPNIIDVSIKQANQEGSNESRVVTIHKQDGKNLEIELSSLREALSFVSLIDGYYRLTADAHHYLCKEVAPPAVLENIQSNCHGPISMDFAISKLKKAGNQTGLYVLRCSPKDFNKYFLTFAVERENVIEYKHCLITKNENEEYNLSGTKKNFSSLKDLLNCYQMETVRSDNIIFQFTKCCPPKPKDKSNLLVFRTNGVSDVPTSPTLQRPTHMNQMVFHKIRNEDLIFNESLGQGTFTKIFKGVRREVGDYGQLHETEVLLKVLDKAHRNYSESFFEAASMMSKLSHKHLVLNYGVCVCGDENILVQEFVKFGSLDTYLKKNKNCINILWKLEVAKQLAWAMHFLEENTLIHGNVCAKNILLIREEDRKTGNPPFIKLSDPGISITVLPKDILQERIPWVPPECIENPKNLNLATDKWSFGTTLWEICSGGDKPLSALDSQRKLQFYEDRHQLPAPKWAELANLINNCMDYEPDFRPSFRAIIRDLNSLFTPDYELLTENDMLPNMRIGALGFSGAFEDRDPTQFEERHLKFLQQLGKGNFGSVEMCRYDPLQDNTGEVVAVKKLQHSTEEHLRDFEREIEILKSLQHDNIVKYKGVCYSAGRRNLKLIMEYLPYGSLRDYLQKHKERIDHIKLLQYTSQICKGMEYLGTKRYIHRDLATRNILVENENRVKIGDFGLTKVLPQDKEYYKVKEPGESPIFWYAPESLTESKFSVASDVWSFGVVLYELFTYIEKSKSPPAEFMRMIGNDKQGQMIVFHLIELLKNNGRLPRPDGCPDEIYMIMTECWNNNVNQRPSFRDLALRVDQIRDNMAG

Chain of ROCK1 (Q13464 whole entry, species assumed, canonical isoform): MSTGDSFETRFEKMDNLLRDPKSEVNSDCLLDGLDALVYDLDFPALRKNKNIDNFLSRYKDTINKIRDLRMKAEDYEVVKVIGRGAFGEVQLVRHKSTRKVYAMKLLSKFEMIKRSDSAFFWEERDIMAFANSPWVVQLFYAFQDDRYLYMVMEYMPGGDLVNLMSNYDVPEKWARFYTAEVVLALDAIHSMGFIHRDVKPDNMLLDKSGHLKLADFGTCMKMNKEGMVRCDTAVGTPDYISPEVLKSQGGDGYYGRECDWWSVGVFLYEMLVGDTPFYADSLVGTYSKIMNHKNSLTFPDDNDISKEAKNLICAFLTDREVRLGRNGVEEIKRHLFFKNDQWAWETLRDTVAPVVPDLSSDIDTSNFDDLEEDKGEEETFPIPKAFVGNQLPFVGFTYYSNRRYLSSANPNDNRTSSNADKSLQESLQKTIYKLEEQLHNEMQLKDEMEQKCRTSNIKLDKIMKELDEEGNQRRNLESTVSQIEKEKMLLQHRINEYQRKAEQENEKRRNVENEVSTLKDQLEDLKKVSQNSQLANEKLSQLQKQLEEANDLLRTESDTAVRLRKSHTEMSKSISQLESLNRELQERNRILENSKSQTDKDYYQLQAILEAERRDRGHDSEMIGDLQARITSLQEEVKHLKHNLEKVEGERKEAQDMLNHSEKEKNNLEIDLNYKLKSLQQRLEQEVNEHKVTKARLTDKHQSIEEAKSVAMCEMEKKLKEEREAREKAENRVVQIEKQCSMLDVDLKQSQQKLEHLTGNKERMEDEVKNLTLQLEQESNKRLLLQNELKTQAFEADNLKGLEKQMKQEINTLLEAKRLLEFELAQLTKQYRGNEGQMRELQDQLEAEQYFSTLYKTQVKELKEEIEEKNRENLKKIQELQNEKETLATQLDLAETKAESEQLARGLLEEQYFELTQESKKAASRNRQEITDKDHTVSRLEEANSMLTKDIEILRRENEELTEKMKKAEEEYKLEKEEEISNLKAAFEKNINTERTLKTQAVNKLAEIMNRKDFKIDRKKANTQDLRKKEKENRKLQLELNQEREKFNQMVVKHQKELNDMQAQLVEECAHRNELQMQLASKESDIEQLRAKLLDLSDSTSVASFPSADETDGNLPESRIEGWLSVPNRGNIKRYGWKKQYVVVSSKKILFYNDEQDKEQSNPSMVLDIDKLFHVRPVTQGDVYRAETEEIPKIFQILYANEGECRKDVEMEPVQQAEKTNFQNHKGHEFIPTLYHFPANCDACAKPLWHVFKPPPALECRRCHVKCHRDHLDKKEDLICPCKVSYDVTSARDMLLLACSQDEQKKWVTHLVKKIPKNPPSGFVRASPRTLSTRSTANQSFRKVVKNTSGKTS
Chain of ROCK2 (O75116 whole entry, species assumed): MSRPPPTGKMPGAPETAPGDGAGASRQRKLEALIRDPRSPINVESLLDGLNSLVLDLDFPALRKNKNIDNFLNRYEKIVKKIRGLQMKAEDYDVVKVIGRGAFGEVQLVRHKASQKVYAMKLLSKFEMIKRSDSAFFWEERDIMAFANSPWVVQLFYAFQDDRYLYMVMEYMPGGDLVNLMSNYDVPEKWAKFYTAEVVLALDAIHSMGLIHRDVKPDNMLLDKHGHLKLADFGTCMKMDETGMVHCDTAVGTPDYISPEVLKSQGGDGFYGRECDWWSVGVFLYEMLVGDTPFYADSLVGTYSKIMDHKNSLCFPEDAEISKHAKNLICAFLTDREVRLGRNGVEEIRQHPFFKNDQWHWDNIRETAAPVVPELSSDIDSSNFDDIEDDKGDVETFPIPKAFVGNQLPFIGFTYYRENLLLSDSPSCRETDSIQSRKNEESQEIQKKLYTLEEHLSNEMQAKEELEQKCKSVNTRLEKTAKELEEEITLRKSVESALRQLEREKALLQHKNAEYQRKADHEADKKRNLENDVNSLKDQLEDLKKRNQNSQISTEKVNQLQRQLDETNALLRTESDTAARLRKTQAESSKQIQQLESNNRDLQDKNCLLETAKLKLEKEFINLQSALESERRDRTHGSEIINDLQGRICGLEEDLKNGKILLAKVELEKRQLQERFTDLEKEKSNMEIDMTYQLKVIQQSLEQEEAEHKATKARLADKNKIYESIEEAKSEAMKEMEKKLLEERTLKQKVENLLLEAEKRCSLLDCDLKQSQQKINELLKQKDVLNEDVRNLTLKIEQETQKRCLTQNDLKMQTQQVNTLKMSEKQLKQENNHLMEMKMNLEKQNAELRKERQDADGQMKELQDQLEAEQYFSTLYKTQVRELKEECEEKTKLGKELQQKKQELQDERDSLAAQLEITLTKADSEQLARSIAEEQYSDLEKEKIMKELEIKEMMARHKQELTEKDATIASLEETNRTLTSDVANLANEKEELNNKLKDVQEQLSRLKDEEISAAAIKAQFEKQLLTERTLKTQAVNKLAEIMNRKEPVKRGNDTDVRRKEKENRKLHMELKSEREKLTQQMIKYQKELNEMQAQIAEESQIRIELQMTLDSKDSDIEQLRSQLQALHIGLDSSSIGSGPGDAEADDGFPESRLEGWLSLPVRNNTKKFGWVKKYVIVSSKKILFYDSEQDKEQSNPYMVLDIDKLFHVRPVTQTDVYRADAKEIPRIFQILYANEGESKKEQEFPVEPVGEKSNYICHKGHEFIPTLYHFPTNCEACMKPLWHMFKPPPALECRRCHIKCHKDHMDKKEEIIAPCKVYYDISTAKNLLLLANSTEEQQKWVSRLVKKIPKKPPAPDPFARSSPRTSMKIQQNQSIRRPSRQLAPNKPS

SMILES | Ki (Rho Kinase) [nM] | Ki (JAK2) [nM] | also measured
O=C(Nc1ccc2cnccc2c1)[C@@H]1C[C@H]1c1ccc(S(=O)(=O)N2CCNCC2)cc1 [Example E276] | – | – | Ki (ROCK2; ROCK2, Table 16): 31 nM; Ki (ROCK1; ROCK1, Table 16): 48 nM
O=C(Nc1ccc2cnccc2c1)[C@@H]1C[C@H]1c1ccc(S(=O)(=O)NCc2cccnc2)cc1 (relative stereo) [(rel)-(1R,2R)-N-(isoquinolin-6-yl)-2-(4-(N-(pyridin-3-ylmethyl)sulfamoyl)phenyl) cyclopropane-1-carboxamide] | – | – | Ki (ROCK2; ROCK2, Table 17): 9 nM; Ki (ROCK1; ROCK1, Table 17): 25 nM
O=C(Nc1ccc2cnccc2c1)[C@@H]1C[C@H]1c1ccc(S(=O)(=O)Nc2cccnc2)cc1 [Example E268] | – | – | Ki (ROCK2; ROCK2, Table 16): 24 nM; Ki (ROCK1; ROCK1, Table 16): 85 nM
O=C(Nc1ccc2cnccc2c1)[C@@H]1C[C@H]1c1ccc(S(=O)(=O)NC2CCNCC2)cc1 (relative stereo) [(rel)-(1R,2R)-N-(isoquinolin-6-yl)-2-(4-(N-(piperidin-4-yl)sulfamoyl)phenyl) cyclopropane-1-carboxamide dihydrochloride] | – | – | Ki (ROCK2; ROCK2, Table 17): 7 nM; Ki (ROCK1; ROCK1, Table 17): 8.2 nM
O=C(OCc1ccccc1)c1ccc([C@@H]2C[C@H]2C(=O)Nc2ccc3cnccc3c2)cc1 (relative stereo) [Example E96, trans-benzyl 4-(2-(isoquinolin-6-ylcarbamoyl)cyclopropyl)benzoate] | 20 to 130 | 1600 to 5000 | –
O=C(NCc1ccccn1)c1ccc([C@H]2C[C@@H]2C(=O)Nc2ccc3cnccc3c2)cc1 [Example E55] | 12000 to 52000 | – | JAK2 activity (JAK2): inactive
O=C(NCc1ccc(C(F)(F)F)cc1)c1ccc(C2CC2C(=O)Nc2ccc3cnccc3c2)cc1 (stereo not drawn) [Example E16] | 5 to 75 | 2500 to 9000 | –
O=C(Nc1ccc2cnccc2c1)[C@@H]1C[C@H]1c1ccc(S(=O)(=O)N2CCNCC2)cc1 (relative stereo) [(rel)-(1R,2R)-N-(isoquinolin-6-yl)-2-(4-(piperazin-1-ylsulfonyl)phenyl) cyclopropane-1-carboxamide dihydrochloride] | – | – | Ki (ROCK2; ROCK2, Table 17): 31 nM; Ki (ROCK1; ROCK1, Table 17): 48 nM
O=Cc1ccc([C@@H]2C[C@H]2C(=O)Nc2ccc3cnccc3c2)cc1 (racemic) [Example E159, trans-2-(4-formylphenyl)-N-(isoquinolin-6-yl)cyclopropane-1-carboxamide] | 20 to 50 | 270 | –
O=C(NCc1cccnc1)c1ccc([C@@H]2C[C@H]2C(=O)Nc2ccc3cnccc3c2)cc1 [Example E56] | 0.5 to 3 | 40 to 120 | –
O=C(Nc1ccc2cnccc2c1)[C@@H]1C[C@H]1c1ccc(S(=O)(=O)Nc2ccccc2)cc1 [Example E265] | – | – | Ki (ROCK2; ROCK2, Table 16): 75 nM; Ki (ROCK1; ROCK1, Table 16): 154 nM
O=C(OCc1ccccc1)c1ccc(C2CC2C(=O)Nc2cc3ccncc3cc2Cl)cc1 (stereo not drawn) [Example E104.1] | 15 to 75 | – | JAK2 activity (JAK2): inactive
O=C(NCC1CCNC1)c1ccc(C2CC2C(=O)Nc2ccc3cnccc3c2)cc1 (stereo not drawn) [Example E20.2] | 4 to 6 | 27 to 150 | –
O=C(Nc1ccc2cnccc2c1)[C@@H]1C[C@H]1c1cccc(S(=O)(=O)Nc2ccccn2)c1 [Example E279] | – | – | Ki (ROCK1; ROCK1, Table 16): 11 nM
COc1ccc(CNC(=O)c2ccc([C@@H]3C[C@H]3C(=O)Nc3ccc4cnccc4c3)c(F)c2)cc1 (relative stereo) [Example E193, trans-3-fluoro-4-(2-(isoquinolin-6-ylcarbamoyl)cyclopropyl)-N-(4-methoxybenzyl)benzamide] | 6 to 8 | 110 | –
O=C(NCc1cccnc1)c1ccc([C@@H]2C[C@H]2C(=O)Nc2ccc3cnccc3c2F)cc1 [Example E56.1] | 0.1 to 0.5 | 40 to 75 | –
O=C(Nc1ccncc1)c1ccc(C2CC2C(=O)Nc2ccc3cnccc3c2)cc1 (stereo not drawn) [Example E12] | 1 to 4 | 400 | –
O=C(NCCO)c1ccc(C2CC2C(=O)Nc2ccc3cnccc3c2)cc1 (stereo not drawn) [Example E38] | 7 to 9.5 | 136 | –
CC(C)(C)OC(=O)N1CCCC1CNC(=O)c1ccc(C2CC2C(=O)Nc2ccc3cnccc3c2)cc1 (stereo not drawn) [Example 19.1] | 30 to 60 | 1500 to 3500 | –

SMILES | Ki (Rho Kinase) [nM] | Ki (JAK2) [nM] | also measured
CC(C)(C)OC(=O)N1CCC[C@@H](CNC(=O)c2ccc([C@@H]3C[C@H]3C(=O)Nc3ccc4cnccc4c3)cc2)C1 [Example E57.1] | 0.15 to 1 | 45 to 65 | –
CC(C)(C)OC(=O)c1ccc(C2CC2C(=O)Nc2ccc3cnccc3c2)cc1 (stereo not drawn) [Example E191.1] | 105 to 155 | 5200 | –
O=C(Nc1ccccc1Cl)OCc1ccc(C2CC2C(=O)Nc2ccc3cnccc3c2)cc1 (stereo not drawn) [Example E143] | 190 to 250 | 1300 to 2700 | –
C[C@@H]1OC(c2ccc(C3CC3C(=O)Nc3ccc4cnccc4c3)cc2)O[C@@H]1C (stereo partly drawn) [Example E158, trans-2-(4-((4S,5S)-4,5-dimethyl-1,3-dioxolan-2-yl)phenyl)-N-(isoquinolin-6-yl)cyclopropane-1-carboxamide] | 165 to 215 | 1000 | –
O=C(NCc1cccnc1)c1ccc(C2CC2C(=O)Nc2cc3ccncc3cc2Br)cc1 (stereo not drawn) [Example E32] | 2.5 to 4.5 | 400 to 1300 | –
O=C(NCc1cccnc1)c1ccc(C2CC2C(=O)Nc2ccc3cncc(F)c3c2)cc1 (stereo not drawn) [Example E33] | 5 to 8 | 75 to 110 | –
O=C(NCc1cccnc1)c1ccc([C@@H]2C[C@H]2C(=O)Nc2ccc3cnccc3c2)cc1 (relative stereo) [Example E8, trans-4-(2-(isoquinolin-6-ylcarbamoyl)cyclopropyl)-N-(pyridin-3-ylmethyl)benzamide] | 1 to 10 | 200 | –
Cc1cncc2ccc(NC(=O)C3CC3c3ccc(C(=O)NCc4cccnc4)cc3)cc12 (stereo not drawn) [Example E34] | 7 to 14 | 30 to 45 | –
O=C(NC[C@@H]1CCCNC1)c1ccc([C@@H]2C[C@H]2C(=O)Nc2ccc3cnccc3c2)cc1 [Example E57.2] | 0.1 to 1 | 7 | –
O=C(NCC1CCCN1)c1ccc(C2CC2C(=O)Nc2ccc3cnccc3c2)cc1 (stereo not drawn) [Example E19.2] | 6 to 12 | 300 to 350 | –
CC(C)(C)OC(=O)c1ccc([C@@H]2C[C@H]2C(=O)Nc2ccc3cnccc3c2)c(F)c1 (relative stereo) [Example E191, trans-tert-butyl 3-fluoro-4-(2-(isoquinolin-6-ylcarbamoyl)cyclopropyl)benzoate] | 125 to 185 | 3000 | –
O=C(NCc1ccccn1)c1ccc(C2CC2C(=O)Nc2ccc3cnccc3c2)cc1 (stereo not drawn) [Example E9] | 3 to 5 | 65 to 100 | –
CC(C)(C)OC(=O)N1CCC(CNC(=O)c2ccc(C3CC3C(=O)Nc3ccc4cnccc4c3)cc2)CC1 (stereo not drawn) [Example E29.1] | 0.5 to 1 | 1000 to 6000 | –
O=C(NCc1ccccn1)c1ccc(C2CC2C(=O)Nc2ccc3cnccc3c2)c(F)c1 (stereo not drawn) [Example E194] | 3.5 to 4 | 15 | –
O=C(NCCN1CCCCC1)c1ccc(C2CC2C(=O)Nc2ccc3cnccc3c2)cc1 (stereo not drawn) [Example E39] | 5 to 7 | 400 | –
O=C(NCc1cccnc1)c1cccc(C2CC2C(=O)Nc2ccc3cnccc3c2)c1 (stereo not drawn) [Example E173] | 0.7 to 1 | 200 | –
O=C(O)c1ccc([C@@H]2C[C@H]2C(=O)Nc2ccc3cnccc3c2)cc1 [Example E116, 4-((1R,2R)-2-(isoquinolin-6-ylcarbamoyl)cyclopropyl)benzoic acid] | 100 to 400 | 400 to 700 | –
O=C(NCc1ccccn1)c1ccc(C2CC2C(=O)Nc2ccc3c(O)nccc3c2)cc1 (stereo not drawn) [Example E31] | 5 to 7 | 375 to 570 | –
CN(C)CCNC(=O)c1ccc(C2CC2C(=O)Nc2ccc3cnccc3c2)cc1 (stereo not drawn) [Example E37] | 4.3 to 9 | 800 | –
